This is an account of results in PMC11812184, “Antimicrobial triazinedione inhibitors of the translocase MraY–protein E interaction site: synergistic effects with bacitracin imply a new mechanism of action” (RSC Medicinal Chemistry, 2025).

Converted amounts (≈) assume the structure as drawn. Some results are limits rather than exact numbers.

The inhibition is the share of the control response that was lost under treatment. As a reminder, the IC50 is the midpoint of a concentration-inhibition curve. The low end stands for greater potency in that assay, the high end for weaker potency in that assay.

Assay [1] deals with T1, translocase MraY (phospho-MurNAc-pentapeptide translocase) (Escherichia coli, UniProt P0A6W3).
T1 construct: membranes containing overexpressed E. coli MraY
T1 sequence (P0A6W3 1-360): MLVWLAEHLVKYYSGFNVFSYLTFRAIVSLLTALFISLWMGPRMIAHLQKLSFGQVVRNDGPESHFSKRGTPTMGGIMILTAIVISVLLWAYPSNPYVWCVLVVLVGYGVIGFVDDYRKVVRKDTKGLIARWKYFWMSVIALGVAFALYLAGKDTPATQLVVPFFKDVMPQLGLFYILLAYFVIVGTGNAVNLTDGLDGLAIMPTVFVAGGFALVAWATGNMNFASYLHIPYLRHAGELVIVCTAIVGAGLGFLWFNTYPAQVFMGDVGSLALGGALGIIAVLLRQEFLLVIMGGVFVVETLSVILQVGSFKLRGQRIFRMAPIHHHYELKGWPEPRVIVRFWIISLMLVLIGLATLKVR
Description: biochemical. Also noted: continuous fluorescence enhancement assay, dansyl-UDPMurNAc-pentapeptide to dansyl-lipid I, membranes overexpressing E. coli MraY. Here is the method:
UDP-MurNAc-L-Ala-γ-D-Glu-L-Lys-D-Ala-D-Ala was prepared enzymatically using the methods described by Lloyd et al.,[32] and was converted to UDP-MurNAc-L-Ala-γ-D-Glu-L-Lys(Nε-dansyl)-D-Ala-D-Ala using the method of Brandish et al.[5] The MraY-catalysed reaction was monitored on a HIDEX Sense microplate reader 425–301 (λex 340 nm, λem 530 nm). To monitor the formation of dansyl-lipid I, membranes containing overexpressed E. coli MraY (15 μL of 0.6 mg mL^−1 stock) were incubated with UDP-MurNAc-L-Ala-γ-D-Glu-L-Lys(Nε-dansyl)-D-Ala-D-Ala (25 μM), undecaprenyl phosphate (30 μM, from stock solution in […] Tris buffer pH 7.5 containing 2 mM β-mercaptoethanol, 1 mM MgCl2, 20% glycerol, 0.5% Triton X-100), in 100 mM Tris buffer pH 7.5 containing 25 mM MgCl2, in a total volume of 100 μL. Test compounds were assayed at 200 μM final concentration, in triplicate assays, and compound 6d was assayed at 25–200 μM concentration in triplicate assays. Tunicamycin (20 μM) was used as a positive control for enzyme inhibition assays. Membranes containing overexpressed E. coli R288L mutant MraY were prepared as described in Rodolis et al.[16] Radiochemical assays were carried out using membranes containing overexpressed E. coli MraY as described in Mihalyi et al.[19] The set of analogues were assayed against particulate E. coli MraY from overexpressed membranes, using a fluorescence enhancement assay with fluorescent substrate UDPMurNAc-L-Ala-γ-D-Glu-L-Lys(ε-N-dansyl)-D-Ala-D-Ala, used previously to assay MraY.[5,16,17]

Assay [2] deals with T2, Bacillus subtilis W23.
T2 construct: W23
Nature of the assay: microbe, parasite or virus in culture. The note with it: MIC50, 50% growth reduction. Also noted: broth microdilution growth inhibition, OD595, overnight; MIC50 = concentration reducing growth by 50%. The method, then:
(§1) P. fluorescens Pf-5, E. coli (TOP10 or C43), B. subtilis (W23) or M. flavus colonies were isolated from an agar plate and inoculated in 5 mL of Luria-Bertani broth overnight at 37 °C. E. coli C43/pET28a-mraY was grown in Luria-Bertani media containing 50 μg mL^−1 kanamycin. […] Serial dilutions of 125, 62.5, 31.25, 15.63, 7.82, 3.90, 1.95 and 0.97 μg mL^−1 test compound were prepared. 10 μL of water, MeOH and DMSO were added to separate wells to serve as a growth control. Each test condition was tested in triplicate. The 96-well plate was covered and incubated overnight at 30 or 37 °C. Optical density (OD595) was measured using a HIDEX Sense microplate reader 425–301. The inhibitor concentration which reduced the growth by 50% was measured as the MIC50 of the compound. The set of analogues were tested for antimicrobial activity against laboratory strains of E. coli K12, B. subtilis W23, and Pseudomonas fluorescens Pf-5.

Assay [3] has as its system T3, Escherichia coli K12.
T3 construct: K12
Description: microbe, parasite or virus in culture. The conditions noted are these: MIC50, 50% growth reduction. Also on record: broth microdilution growth inhibition, OD595, overnight; MIC50 = concentration reducing growth by 50%. The method, then: as §1

In assay [4] the test system is T4, Pseudomonas fluorescens Pf-5.
T4 construct: Pf-5
Nature of the assay: microbe, parasite or virus in culture. Also noted: broth microdilution growth inhibition, OD595, overnight; MIC50 = concentration reducing growth by 50%. The note with it: PF5, MIC50, 50% growth reduction. Here is the method:
as §1

The target in assay [5] is T5, translocase MraY (phospho-MurNAc-pentapeptide translocase) (Escherichia coli, UniProt P0A6W3).
T5 construct: membranes containing overexpressed E. coli MraY
Nature of the assay: continuous fluorescence assay with dansyl-UDPMurNAc-pentapeptide, overexpressed membranes. It is filed as biochemical. The text has this:
continuous fluorescence assay with dansyl-UDPMurNAc-pentapeptide, overexpressed membranes on translocase MraY (phospho-MurNAc-pentapeptide translocase) | highest enzyme inhibition shown by compound 6d.

In assay [6] the target is T5, translocase MraY (phospho-MurNAc-pentapeptide translocase). Nature of the assay: continuous fluorescence assay, % inhibition at […], overexpressed membranes. It is filed as biochemical.

`CCCCCCCCn1c(=O)nc(NCCN)n(Cc2ccccc2)c1=O` [6a]: the inhibition at 200 µM in assay [1] (continuous fluorescence assay) came to 36%. In addition, the MIC50 in assay [2] worked out at 8 µg/mL (≈ 21.4 µM); in assay [3] it was 16 µg/mL (≈ 42.8 µM); in assay [4], 64 µg/mL (≈ 171 µM).

As for `CCCCCCCCn1c(=O)nc(NCCN)n(Cc2ccc(OC)cc2)c1=O` [6b], the inhibition at 200 µM in assay [1] (continuous fluorescence assay) amounted to 50%. Besides, the MIC50 in assay [2] was 8 µg/mL (≈ 19.8 µM); in assay [3], 16 µg/mL (≈ 39.7 µM); in assay [4], 32 µg/mL (≈ 79.3 µM).

For the molecule `CCCCCCCCn1c(=O)nc(NCCN)n(Cc2cccc(OC)c2)c1=O` [6c], the inhibition at 200 µM in assay [1] (continuous fluorescence assay) was determined as 42%. Also, the MIC50 in assay [2] is 32 µg/mL (≈ 79.3 µM); in assay [3] it was 64 µg/mL (≈ 159 µM); in assay [4], more than 256 µg/mL.

As to `CCCCCCCCn1c(=O)nc(NCCN)n(Cc2ccccc2OC)c1=O` [6d], the inhibition at 200 µM in assay [1] (read-out: % MraY inhibition @200 μM) amounted to 80%. For the same molecule, the MIC50 in assay [2] is 32 µg/mL (≈ 79.3 µM); in assay [3], 64 µg/mL (≈ 159 µM); in assay [4], more than 256 µg/mL. In assay [5], it took 48 µM to reach half-maximal inhibition (IC50).

As for `CCCCCCCCn1c(=O)nc(NCCN)n(Cc2ccc(F)cc2)c1=O` [6e], the inhibition at 200 µM in assay [1] (continuous fluorescence assay) worked out at 35%. Moreover, the MIC50 in assay [2] was 32 µg/mL (≈ 81.7 µM); in assay [3], 64 µg/mL (≈ 163 µM); in assay [4], 128 µg/mL (≈ 327 µM).

On to `CCCCCCCCn1c(=O)nc(NCCN)n(Cc2ccc(Cl)cc2)c1=O` [6f], for which the inhibition at 200 µM in assay [1] (continuous fluorescence assay) is 15%. The values for the MIC50 in assay [2], in assay [3] and in assay [4] were 4 µg/mL (≈ 9.81 µM), 8 µg/mL (≈ 19.6 µM) and 64 µg/mL (≈ 157 µM), respectively.

For the molecule `CCCCCCCCn1c(=O)nc(NCCN)n(Cc2ccc(Br)cc2)c1=O` [6g], the inhibition at 200 µM in assay [6] came to 68%. Moreover, the MIC50 in assay [2] was 16 µg/mL (≈ 35.4 µM); in assay [3], 16 µg/mL (≈ 35.4 µM); in assay [4], 64 µg/mL (≈ 141 µM).

`CCCCCCCCn1c(=O)nc(NCCN)n(Cc2ccc([N+](=O)[O-])cc2)c1=O` [6h] showed an inhibition at 200 µM in assay [6] of 63%. Further, the figures for the MIC50 in assay [2], in assay [3] and in assay [4] were 32 µg/mL (≈ 76.5 µM), 64 µg/mL (≈ 153 µM) and more than 256 µg/mL, respectively.

For the molecule `CCCCCCCCn1c(=O)nc(NCCN)n(Cc2ccc(C(F)(F)F)cc2)c1=O` [6j], the inhibition at 200 µM in assay [6] came out at 59%. Also, the MIC50 in assay [2] was 32 µg/mL (≈ 72.5 µM); in assay [3], 64 µg/mL (≈ 145 µM); in assay [4] it was more than 256 µg/mL.

On to `CCCCCCCCn1c(=O)nc(NCCNC(=N)N)n(Cc2ccccc2)c1=O` [7a], for which the inhibition at 200 µM in assay [1] (continuous fluorescence assay) came to 41%. Moreover, the MIC50 in assay [2] came out at 8 µg/mL (≈ 19.3 µM); in assay [3], 16 µg/mL (≈ 38.5 µM); in assay [4] it was 32 µg/mL (≈ 77 µM).

Regarding `CCCCCCCCn1c(=O)nc(NCCNC(=N)N)n(Cc2ccc(OC)cc2)c1=O` [7b], the inhibition at 200 µM in assay [1] (continuous fluorescence assay) amounted to 48%. For the same molecule, the MIC50 in assay [2] is 2 µg/mL (≈ 4.49 µM); in assay [3], 16 µg/mL (≈ 35.9 µM); in assay [4] it was 32 µg/mL (≈ 71.8 µM).

Molecule `CCCCCCCCn1c(=O)nc(NCCNC(=N)N)n(Cc2cccc(OC)c2)c1=O` [7c] displayed an inhibition at 200 µM in assay [6] of 57%. Besides, the MIC50 came out at 4 µg/mL (≈ 8.98 µM) in assay [2], 16 µg/mL (≈ 35.9 µM) in assay [3] and 32 µg/mL (≈ 71.8 µM) in assay [4].

On to `CCCCCCCCn1c(=O)nc(NCCNC(=N)N)n(Cc2ccccc2OC)c1=O` [7d], for which at 200 µM the inhibition in assay [6] was 57%. For the same molecule, the MIC50 is 4 µg/mL (≈ 8.98 µM) in assay [2], 16 µg/mL (≈ 35.9 µM) in assay [3] and more than 256 µg/mL in assay [4].

On to `CCCCCCCCn1c(=O)nc(NCCNC(=N)N)n(Cc2ccc(F)cc2)c1=O` [7e], for which at 200 µM the inhibition in assay [6] was 63%. Also, the MIC50 in assay [2] is 4 µg/mL (≈ 9.23 µM); in assay [3] it was 16 µg/mL (≈ 36.9 µM); in assay [4], 32 µg/mL (≈ 73.8 µM).

Consider `CCCCCCCCn1c(=O)nc(NCCNC(=N)N)n(Cc2ccc(Cl)cc2)c1=O` [7f], for which the inhibition at 200 µM in assay [1] (continuous fluorescence assay) came out at 42%. For the same molecule, the values for the MIC50 in assay [2], in assay [3] and in assay [4] were 8 µg/mL (≈ 17.8 µM), 8 µg/mL (≈ 17.8 µM) and 32 µg/mL (≈ 71.1 µM), respectively.

Molecule `CCCCCCCCn1c(=O)nc(NCCNC(=N)N)n(Cc2ccc(Br)cc2)c1=O` [7g] returned an inhibition at 200 µM in assay [6] of 51%. The MIC50 came to 4 µg/mL (≈ 8.09 µM) in assay [2], 16 µg/mL (≈ 32.4 µM) in assay [3] and 256 µg/mL (≈ 518 µM) in assay [4].

`CCCCCCCCn1c(=O)nc(NCCNC(=N)N)n(Cc2ccc([N+](=O)[O-])cc2)c1=O` [7h]: in assay [6], at 200 µM the inhibition was 70%. Besides, the MIC50 in assay [2] was 32 µg/mL (≈ 69.5 µM); in assay [3], 64 µg/mL (≈ 139 µM); in assay [4], 256 µg/mL (≈ 556 µM).

`CCCCCCCCn1c(=O)nc(NCCNC(=N)N)n(Cc2ccc(C(F)(F)F)cc2)c1=O` [7j]: the inhibition at 200 µM in assay [1] (continuous fluorescence assay) is 43%. The values for the MIC50 in assay [2], in assay [3] and in assay [4] were 1 µg/mL (≈ 2.07 µM), 4 µg/mL (≈ 8.27 µM) and 16 µg/mL (≈ 33.1 µM), respectively.

Take `CCCCCCCCn1c(=O)nc(NCCO)n(Cc2ccccc2)c1=O` [compound 11]: the inhibition at 200 µM in assay [1] (continuous fluorescence assay) worked out at 39%. In addition, the MIC50 in assay [2] and in assay [3] was more than 256 µg/mL each time.

As to `CCCCCCCCn1c(=O)nc(NCCNC(N)=O)n(Cc2ccccc2)c1=O` [compound 12], in assay [1] (continuous fluorescence assay), the inhibition at 200 µM worked out at 39%. Also, the MIC50 in assay [2] came to 128 µg/mL (≈ 307 µM); in assay [3], 64 µg/mL (≈ 154 µM).

As for `CCCCCCCCn1c(=O)nc(NCCN)n(C(CCc2ccccc2)c2ccccc2)c1=O` (stereo not shown) [compound 13, 13], at 200 µM the inhibition in assay [6] was 64%. Further, the MIC50 in assay [2] was 128 µg/mL (≈ 268 µM); in assay [3] it was 256 µg/mL (≈ 536 µM).
